According to US20130167838A1, “NASAL FORMULATION” (TEVA BRANDED PHARMACEUTICAL PRODUCTS, INC., priority 2011, published 2013):
Counter-ions that a name gives are not always drawn.

Experiments:
[1] = Stability of active ingredients in ethanol formulations with and without hydrochloric acid, stored at 60° C. for 21 days, HPLC; format: physicochemical; details: ethanol formulations with vs without HCl, FIG. 2
Procedure: Further formulations were prepared containing the active ingredient(s) and ethanol with and without hydrochloric acid in order to test the stability of the active ingredients. The formulations were: Formulation (i): azelastine+BDP, with acid Formulation (ii): BDP without acid Formulation (iii): BDP with acid Formulation (iv): azelastine+BDP, without acid The precise ethanol formulations were as follows: [table] The formulations were stored at 60° C. for 21 days and the amounts of the active ingredients measured at intervals during the test period. The amounts of the active ingredients were measured using HPLC with external standards of azelastine free base and BDP. The results are shown graphically in FIG. 2. […] The BDP with no acid and no azelastine was […]. However, the combination of BDP with both acid and azelastine is […].

[2] = Solubility in an HFA/ethanol formulation; format: physicochemical
From the text: Azelastine has been marketed as the hydrochloride salt, but the problem is that the hydrochloride salt is not soluble in an HFA/ethanol formulation.

CN1CCCC(n2nc(Cc3ccc(Cl)cc3)c3ccccc3c2=O)CC1 (centres unmarked) [azelastine, Azelastine]
stabilisation of the azelastine by including an acid (amount measured by HPLC) [1]: some additional stabilisation

CN1CCCC(n2nc(Cc3ccc(Cl)cc3)c3ccccc3c2=O)CC1 (centres unmarked) [hydrochloride salt, azelastine hydrochloride]
solubility in an HFA/ethanol formulation [2]: not soluble
